In patent US20120321896A1, “RASAGILINE MESYLATE HAVING LARGE PARTICLE SIZE AND A PROCESS FOR PREPARATION THEREOF” (priority 2010, published 2012):
Structures can show the parent of a compound that is named as a salt.

Conditions: volume distribution; average of three measurements; recrystallised from isopropyl alcohol, gradual cooling in around 15 hours without stirring, no milling
Description: Measurement and characterization of particle size distributions is known in the art. It is possible to compare samples of particulate rasagiline mesylate on the basis of individual points on a cumulative particle size distribution curve. The measurements are represented as d(0.X)-Y (where X and Y are Arabic numerals), each “d” describing an individual point on a cumulative PSD curve. The number “X” represents the percentage (number, volume, or weight) of particles in the population having a nominal size up to and including “Y”. Thus, D90 or d(0.9) of greater than 255 μm is a characteristic of a PSD in which 90% (number, volume, or weight) of the particles in a population have a nominal size of about 255 μm or more (at least some particles having a nominal dimension of 255 μm) and so forth. When PSD is determined by the well-know laser-diffraction method described herein, the D90 measurement depicts a volume average.
Particle Size Distribution (PSD) is determined by laser diffraction in Malvern master Sizer 2000 equipment or its equivalent:
Spread sufficient powder in the dry powder holder of sampler holding unit and close it by the sliding cover. Operate the instrument for particle size analysis.
Report the average of three measurements.

In the case of `C#CCN[C@@H]1CCc2ccccc21` [Example-2, Rasagiline mesylate], the “Particle size data (D90)” value is reported as 337.1 μm.

For `C#CCN[C@@H]1CCc2ccccc21` [Example-1, Rasagiline mesylate], the “Particle size data (D90)” value was 292.2 μm.
